Like-named read-outs stand apart in the source and are kept apart here.
Experiments:
[1] = target: T1, human hcp SH2 domain (Homo sapiens, UniProt P29350); assay: SH2 domain / pY peptide binding assay (ELISA-based, 96 well plate), hcp SH2
T1 sequence (P29350 4-100): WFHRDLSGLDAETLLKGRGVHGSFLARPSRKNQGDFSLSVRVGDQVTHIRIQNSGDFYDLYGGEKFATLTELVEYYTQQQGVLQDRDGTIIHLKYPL
Protocol: (§1) The inhibitory activity of compounds at the different human SH2 domains was determined in vitro using SH2 domains expressed as fusion proteins in E. coli. The SH2 domains used herein were the human forms of the src SH2 domain, Grb2 SH2 domain, lck SH2 domain, fyn SH2 domain, SH-PTP2 SH2 domain, p85 SH2 domain and hcp SH2 domain.
(§2) The fusion proteins containing the src, lck and hcp SH2 domains were expressed as the general sequence: DET1-DET2-spacer-ek-SH2, where DETI, DET2, spacer, ek and SH2 are as described below. DET1 ("defined epitope tag 1") (SEQ ID NO: 1) is an 11 amino acid sequence found in the Human Immunodeficiency Virus Type 1 (HIV-1) envelope protein gp120 (or gp160). Monoclonal antibodies to various epitopes of HIV-1 gp120 (or gp160) are known in the art, see, for example U.S. Patent 5,166,050. One preferred example is monoclonal antibody 178.1 (see, e.g., Thiriart et al., J. Immunol., 143:1832-1836 (1989)), which was prepared by immunization of mice with a yeast-expressed HIV-1 gp160 molecule from strain BH10 (Ratner et al., Nature, 313:277-284 (1985)). This tag was used for detection of expression (by Western blot), for purification of the protein (by affinity chromatography), and for configuring assays in which the fusion protein was captured or immobilized using the 178.1 antibody. DET2 is a hexahistidine sequence tag (SEQ ID NO: 2) which binds to nickel-containing resins and was used for purification purposes. Spacer (SEQ ID NO: 3) was utilized to design a BamH1 restriction site at the indicated position of the construct. The term -ekrefers to a recognition sequence (SEQ ID NO: 4) for the enterokinase protease which provides for the optional removal of the tags from the SH2 domain, thus producing an SH2 domain that contains no extraneous amino acids. SH2 domains which contain no extraneous amino acids are preferable to tagged protein for crystallography studies. SH2 refers to the SH2 domains of different proteins.
Cloning and expression of human hcp SH2 domain containing tags and an enterokinase proteolytic cleavage site (DET1-DET2-spacer-ek-hcp SH2).
A DNA sequence encoding protein ek-hcp SH2 was reverse transcriptase-PCR amplified from human fetal liver RNA. RNA isolation used Tri-Reagent (Molecular Research Center Inc.) and the Reverse Transcriptase system (GIBCO-BRL) according to the manufacture's instructions. PCR was carried out using the following primers: [formula]
The PCR product was digested with BglII and XbaI, followed by isolation of the digested fragment on an agarose gel. The fragment was ligated into BamHI-XbaI-digested expression vector containing the tagged human src gene DET1-DET2-spacer-ek-src SH2 described in Procedure 2 above. In that vector, the BamHI site is located in between the coding regions for DET2 and ek, and the XbaI site is located after the 3' end of the SH2 coding region. Thus, the ek-hcp SH2 sequence replaced the ek-src SH2 sequence in the above vector. The ligation reaction was used to transform E. coli MM294cI^+. The construct containing DET1-DET2-spacer-ek-hcp SH2 was confirmed by DNA sequencing (SEQ ID NO: 7) and used to transform E. coli GI698 (Invitrogen Corporation, San Diego, CA). Induction of the phage lambda promoter was induced by addition of tryptophan to the culture medium to 10 mg/ml, per the manufacture's instructions. A Coomassie-Blue-stained, Western-blot-positive induced protein band with an apparent molecular weight of 15,000 was observed after tryptophan induction of cells growing at 30° C.
Cells were lysed at neutral pH by sonication in the presance of lysozyme. After centrifugation, the insoluble pellet was solubilized with 8 M urea in Tris buffer pH 8 and bound onto a Ni^++NTA column. The resin was washed with equilibration buffer (Tris buffer pH 8 containing 0.5 M NaCl, 8 M urea and 5 mM BME) and the same buffer containing 15 mM imidazole. […]

[2] = target: T2, human lck SH2 domain (Homo sapiens, UniProt P06239); assay: SH2 domain / pY peptide binding assay (ELISA-based, 96 well plate), lck SH2; conditions: for Ki: Ki calculated from IC50 by the expanded equation, Table II; for IC50: cloned human SH2 domain fusion protein, 0.1 uM biotinylated pY peptide, Table I
T2 construct: Cloning and expression of human lck SH2 domain containing tags and an enterokinase proteolytic cleavage site; made in house; host or cells: E. coli AR120
Protocol: as §1, §2
Cloning and expression of human lck SH2 domain containing tags and an enterokinase proteolytic cleavage site (DET1-DET2-spacer-ek-lck SH2).
A DNA sequence encoding protein ek-lck SH2 was PCR amplified from a cDNA clone containing the human lck gene (Genbank accession number M36881) using the following primers: [formula]
The PCR product was digested with BamHI and XbaI, followed by isolation of the digested fragment on an agarose gel. The fragment was ligated into BamHI-XbaI-digested expression vector containing the tagged chicken src gene DET1-DET2-spacer-SH2 described in Procedure 1 above. In that vector, the BamHI site is located in between the coding regions for DET2 and SH2, and the XbaI site is located after the 3' end of the SH2 coding region. Thus, the ek-lck SH2 sequence replaced the src SH2 sequence in the above vector. The ligation reaction was used to transform E. coli MM294cI^+. The construct containing […] was confirmed by DNA sequencing (SEQ ID NO: 6) and induced in E. coli strain AR120 as described in Procedure 1 above. A Coomassie-Blue-stained, Western-blot-positive induced protein band with an apparent molecular weight of 17,000 was observed after nalidixic acid induction.
Cells were lysed at neutral pH by sonication in the presance of lysozyme. After centrifugation, the soluble extract was chromatographed on a Ni^++NTA column. After washing the column with equilibration buffer (Tris buffer pH 8 containing 0.5 M NaCl) and the same buffer containing 15 mM imidazole, the protein was eluted in highly purified form with 25 mM imidazole in equilibration buffer.
The binding assays for the SH2 domains and pY peptides were performed in an ELISA-based 96 well plate assay. In Millipore 96 well filter plates, hydrophilic Durapore® (pore size 0.65um Cat. No. MADVN6550), was added 2 ul (50% suspension) of Protein-G Sepharose (available from Pharmacia of N.J. Cat. No. 17-0618-01) and either 2 ul of 2 mg/ml of MAB178. […]

[3] = cloned human SH2 domain fusion protein; 0.1 uM biotinylated pY peptide; Table I; read-out: Hcp (IC50)

T2 sequence (P06239 127-224 limits assumed): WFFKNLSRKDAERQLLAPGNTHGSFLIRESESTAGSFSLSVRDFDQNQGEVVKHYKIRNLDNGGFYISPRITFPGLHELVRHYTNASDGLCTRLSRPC

Molecule | IC50 [1, 3] [µM] | Ki [2] [µM] | IC50 [2] [µM] | IC50 ([1]; read-out: Hcp (IC50); cloned human SH2 domain fusion protein; 0.1 uM biotinylated pY peptide; Table I) [µM]
4-acetamido-benzamido-trans-4-methyl-cyclohexyl-N-1-(amino-R-2-(methoxy methyl)-pyrrolidine) carboxamide [Compound 8] | > 100 | 360 | 126 | 
Cc1nnc(SCC2=C(C(=O)O)N3C(=O)[C@@H](NC(=O)C(N)c4ccc(C(=O)O)cc4)[C@H]3SC2)s1 (stereo partly drawn) [Compound 1, 7-[D,L-α-Amino-α-(4-carboxyphenyl)acetamido]-3-[2-(5-methyl-1,3,4-thiadiazolyl)thiomethyl]Δ^3-cephem-4-carboxylic Acid] |  |  | 6 | 
N[C@@H](Cc1cc(Br)c(Oc2ccc(O)c(Cc3ccc(O)nn3)c2)c(Br)c1)C(=O)O [Compound 2, L-3,5-Dibromo-3'-(6-oxo-3(1H)-pyridazinylmethyl)-thyronine] |  | > 1000 | > 300 | 0.9
Cc1nc2sc3c(c2c2[nH][nH]c(=O)c12)CCC1(C3)OCCO1 [Compound 3, 8,8-Ethylenedioxy-2,3,7,8,9,10-hexahydro-4-methyl-1H-benzo[b]thieno[2,3-b]pyrazolo[3,4-d]pyridin-3-one] | 1.2 | 11 | 22.9 | 
Cc1ccc(C(=O)c2ccc(C(=O)c3ccc(CC=O)cc3)cc2)cc1 [Compound 4, 4-[4-(4-Methylbenzoyl)benzoyl]phenylacetaldehyde] | 30 | 163 | 163 | 
Cc1nc2sc3c(c2c2c1c(=O)[nH]n2C)CCC1(C3)OCCO1 [Compound 5, 1,4-Dimethyl-8,8-ethylenedioxy-2,3,7,8,9,10-hexahydro-1H-benzo[b]thieno[2,3-b]pyrazolo[3,4-d]pyridin-3-one] | 0.1 | 149 | 100 | 
CCCCCCNC(=O)[C@H]1CC[C@H](CNC(=O)c2ccc([N+](=O)[O-])cc2)CC1 [Compound 7, 4-nitro-benzamido-trans-4-methyl-cyclohexyl-N-hexyl carboxamide] | > 300 | 320 | 383 | 
CCCNC(=O)[C@H]1CC[C@H](CNC(=O)/C=C/c2ccc(C=O)cc2)CC1 [Compound 9, 4-formyl-E-cinnamido-trans-4-methyl-cyclohexyl-N-(propyl) carboxamide] | 12 | 146 | 200 | 
Cc1nc2sc3c(c2c2[nH][nH]c(=O)c12)CCCC3 [Compound 10, 2,3,7,8,9,10-Hexahydro-4-methyl-1H-benzo[b]thieno[2,3-b]pyrazolo[3,4-d]pyridin-3-one] | 1.2 |  |  | 

Source: patent EP0727211A1, “Use of src SH2 specific compounds to treat a bone resorption disease” (SMITHKLINE BEECHAM CORPORATION, priority 1995, dated 1996)
